“Also recorded” adds a separate entry of the source.
Tests used:
[1] = tested on: JCPyV; parameters: unit not given beside the values; conditions: cells not given; cited from earlier work
[2] = tested on: JCPyV; test: rescue of JCPyV infection by PMA cotreatment in SVG-A cells; format: cell-based, JC polyomavirus; conditions: SVG-A cells cotreated with PMA and GW-5074
[3] = cytotoxicity in NHA cells; format: cell-based; conditions: human, read-out: 50% cytotoxic concentration (CC50)
[4] = tested on: ERK1/2; test: endogenous ERK phosphorylation, with or without PMA; format: cell-based
[5] = tested on: human and simian polyomaviruses; test: initial infection by human and simian polyomaviruses (FIG. 4); format: cell-based
[6] = cytotoxicity in SVG-A cells; format: cell-based; conditions: human, read-out: 50% cytotoxic concentration (CC50)
[7] = tested on: JCPyV; test: long-term cell-to-cell spread of JCPyV; format: cell-based, JC polyomavirus; conditions: introduced after establishment of a productive infection
From the text: SI50 values are important metrics in drug discovery, and an SI50 greater than 10 is commonly considered to be an important starting point in drug development.

[8] = tested on: JCPyV; test: JCPyV infection, cells not stated (FIG. 1, FIG. 2); format: cell-based, JC polyomavirus
[9] = tested on: JCPyV; test: initial JCPyV infection in primary normal human astrocytes (NHA), indirect immunofluorescent quantification of viral proteins; format: cell-based, JC polyomavirus; conditions: pre-treatment
[10] = tested on: JCPyV; test: initial JCPyV infection in SVG-A glial cells, indirect immunofluorescent quantification of viral proteins; format: cell-based, JC polyomavirus; conditions: pre-treatment
[11] = tested on: PML; test: administration to patients with or at risk of PML (Examples 1-6); format: in vivo
From the text: The patient's difficulty in walking is decreased. […] The patient's facial drooping is decreased. […] The patient's loss of vision is decreased. […] The patient's seizures are decreased. […].

[12] = patient with early signs of PML

Compound: Cc1ccc(C2Nc3ccccc3C(=O)N2c2ccccc2)s1 (stereo not shown) [Retro-2^cycl]
- SI50 of established compounds with anti-JCPyV activity [1]: 7.4

Compound: O=C1Nc2ccc(I)cc2C1=Cc1cc(Br)c(O)c(Br)c1 [GW-5074, 3-(3,5-dibromo-4-hydroxybenzylidene)-5-iodoindolin-2-one]
- rescue of JCPyV infection [2]: JCPyV infection could not be rescued
- CC50 [3]: > 20 µM
- endogenous ERK phosphorylation [4]: inhibits endogenous ERK1/2 phosphorylation; also recorded: inhibited endogenous ERK phosphorylation
- restoration of ERK activity ([4]; coincubation with PKC agonist PMA): ERK activity could not be restored
- initial infection by human and simian polyomaviruses [5]: reduction of initial infection
- CC50 [6]: > 100 µM
- long-term cell-to-cell spread of JCPyV [7]: inhibition of viral spread; also recorded: inhibited long-term cell-to-cell spread of JCPyV
- initial JCPyV infection ([8]; FIG. 1, cells not stated): reduction in initial JCPyV infection
- protective effect ([8]; FIG. 2): protective effect
- IC50 ([9]; JC polyomavirus, Astrocyte, NHA cells, one round of productive infection, read-out: 50% inhibitory concentration (IC50)): 0.84 µM
- initial JCPyV infection ([9]; primary normal human astrocytes, non-toxic concentrations): reduction of initial infection; also recorded: potently reduced initial JCPyV infection
- IC50 ([10]; JC polyomavirus, SVG-A cells, one round of productive infection, read-out: 50% inhibitory concentration (IC50)): 6.8 µM
- initial JCPyV infection ([10]; SVG-A glial cells, non-toxic concentrations): potently reduced initial JCPyV infection
- development of PML ([11]; patient at risk for the development of PML): does not develop PML
- difficulty in walking [11, 12]: decreased
- facial drooping [11, 12]: decreased
- loss of vision [11, 12]: decreased
- loss of vision ([11]; patient with mid-stage PML): decreased
- seizures ([11]; patient with mid-stage PML): decreased

Compound: CN(C)CCCN1c2ccccc2Sc2ccc(Cl)cc21 [chlorpromazine]
- SI50 of established compounds with anti-JCPyV activity [1]: 2.0

Compound: OC(c1cc(C(F)(F)F)nc2c(C(F)(F)F)cccc12)C1CCCCN1 (stereo not shown) [mefloquine]
- SI50 of established compounds with anti-JCPyV activity [1]: 4.0

From patent US12691097B2, “Methods and compositions for treating polyomavirus” (Brown University, priority 2022, dated 2026)
